Results taken from patent US10774111B2, “Opioid peptide” (Embrapa—Empresa Brasileira de Pesquisa Agropecuária, priority 2014, dated 2020).
Ends that are not written are not given here.

Tests used:
trypsin = conditions: incubation with trypsin enzyme (enzymes present in the gastrointestinal tract), in vitro
Experimental: FIG. 11—Representation of the fragments obtained at the different incubation times with the enzyme trypsin. Analysis performed by mass spectrometry, MALDI. The first spectrum, marked with the letter A, refers to the time of 15 minutes; the second spectrum marked with the letter B indicates the time of 30 minutes; C indicates the time of 2 hour2; D indicates the time of 4 hours; and, finally, E is the control peptide (SEQ ID NO: 6).
FIG. 12—Representation of the fragments obtained at the different incubation times with the enzyme trypsin. Analysis performed by mass spectrometry, MALDI.
By means of this experiment it was possible to try to observe the in vitro peptide digestion by the enzyme present in the organism.

Swiss mice [1] = assay: Hot Plate nociception test in mice; type: in vivo, Mus musculus; conditions: i.p. in mice, dose based on dose and molarity of morphine 10 mg/kg (Leu-enkephalin 19.3 mg/kg), followed 120-240 min
Experimental: (§1) In vivo analyzes: Tests were carried out on Swiss mice of the Mus musculus species, in which nociception tests (Hot Plate and Tail Flick) were used according to Le Bars et al. (2001). Injections were administered via intraperitoneal (IP). Doses were based upon dose and molaridade of the morphine (10 mg/kg animal).
To initiate the nociceptive tests and verify the efficiency of the same, a pilot experiment was carried out using the peptide sequence SEQ ID NO: 2 and evaluating the behavior of the animals in the course of two hours.

Swiss mice [2] = assay: Tail Flick nociception test in mice; type: in vivo, Mus musculus; conditions: i.p. in mice, 240 min
Experimental: as §1

immobilized pepsin = immobilized pepsin (Homo sapiens, UniProt P0DJD8); conditions: 4 hours, 37° C., 1400 RPM
Chain of immobilized pepsin (P0DJD8 63-388): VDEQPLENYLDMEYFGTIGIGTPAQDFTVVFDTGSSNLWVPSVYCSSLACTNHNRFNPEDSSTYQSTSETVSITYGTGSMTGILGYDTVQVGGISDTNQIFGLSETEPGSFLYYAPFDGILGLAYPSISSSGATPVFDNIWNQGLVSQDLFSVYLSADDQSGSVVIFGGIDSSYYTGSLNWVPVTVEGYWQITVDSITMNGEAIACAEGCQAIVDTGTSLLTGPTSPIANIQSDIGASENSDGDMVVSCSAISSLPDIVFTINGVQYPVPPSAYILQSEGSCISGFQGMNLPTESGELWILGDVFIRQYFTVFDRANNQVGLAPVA
Experimental: Digestion of the immobilized pepsin precursor: the peptide sequence SEQ ID NO: 6 was digested using immobilized pepsin for a period of 4 hours at 37° C. under agitation of 1400 RPM evaluating the fragmentation index at the times of 15 minutes, 30 minutes, 2 hours and 4 hours.
The peptide sequence SEQ ID NO: 6 was digested using immobilized pepsin for a period of 4 hours, evaluating the fragmentation index at the times of 15 minutes, 30 minutes, 2 hours and 4 hours.
Enkephalin (Leu) was digested using immobilized pepsin for a period of 4 hours, evaluating the fragmentation index at the times of 30 minutes, 1 hour, 2 hours and 4 hours.

Molecule	intensity of the major peak during incubation (trypsin)	antinociceptive (opioid) activity, latency index (Swiss mice [1])	antinociceptive activity, latency index (Swiss mice [2])	fragmentation index (precursor ion and lower mass ions over time) (immobilized pepsin)
CC(C)C[C@H](NC(=O)[C@H](Cc1ccccc1)NC(=O)CNC(=O)CNC(=O)[C@@H](N)Cc1ccc(O)cc1)C(=O)O [Leu-enkephalin, reference compound]	reducing			
SEQ ID NO: 2: synthetic opioid peptide of the formula TyrGlyGly-X1-X2-X3-X4; sequence not printed in the text (YGGTGAH)		delayed and prolonged activity		
SEQ ID NO: 3: synthetic opioid peptide of the formula TyrGlyGly-X1-X2-X3-X4; sequence not printed in the text (YGGEGVQ)		possible to visualize the activity	possible to visualize the activity	
SEQ ID NO: 4: synthetic opioid peptide of the formula TyrGlyGly-X1-X2-X3-X4; sequence not printed in the text (YGGTTGT)		antinociception activity	antinociception activity	
SEQ ID NO: 5: synthetic opioid peptide of the formula TyrGlyGly-X1-X2-X3-X4; sequence not printed in the text (YGGEGEQ)		antinociceptive	antinociceptive	
YGGTAGAHGTY [SEQ ID NO: 6]	reducing			increase in the intensity of the lower mass ions over time and the decrease of the precursor ion
